Patent publication US20250195521A1 (Revolution Medicines, Inc., priority 2020, published 2025)
pIC50: −log10 of the molar value. Read-outs that look alike come from different tables or passages of the source.

Columns and labels:
[1] = system: NCI-H358 cells (K-Ras G12C); test: CellTiter-Glo cell viability, NCI-H358; format: cell-based, human; conditions: Homo sapiens, NCI-H358, 120 h, read-out: H358 Cell Viability IC50
Method in brief: (§1)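 Five-day treatment of K-Ras mutant cells with directly dispensed compound; ATP-based luminescence endpoint. Percent of DMSO signal fit to four-parameter logistic curve.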

[2] = system: Capan-1 cells (K-Ras G12V); test: CellTiter-Glo cell viability, Capan-1; format: cell-based, human; conditions: Homo sapiens, CAPAN-1, 120 h, read-out: Capan-1 Cell Viability IC50
Method in brief: as §1

KRAS G12C = KRAS G12C (Homo sapiens (Human), UniProt P01116+P62937, G12C); test: Ras-Raf disruption/FRET/MOA assay (BRAF RBD, Cyclophilin A); format: biochemical; conditions: read-out: KRAS G12C FRET IC50
Method in brief: (§2)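 TR-FRET readout: anti-His Eu-W1024 (10 nM) and anti-GST allophycocyanin (50 nM) added after 3 h, 25° C compound incubation, then 1.5 h more. Decrease in FRET ratio versus DMSO wells marks Ras:RAF disruption; IC50 reported.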

KRAS G12D = KRAS G12D (Homo sapiens (Human), UniProt P01116+P62937, G12D); test: as above; format: biochemical; conditions: read-out: KRAS G12D FRET IC50
Method in brief: as §2

KRAS G12S = KRAS G12S (Homo sapiens (Human), UniProt P01116+P62937, G12S); test: as above; format: biochemical; conditions: read-out: KRAS G12S FRET IC50
Method in brief: as §2

KRAS G12V = KRAS G12V (Homo sapiens (Human), UniProt P01116+P62937, G12V); test: as above; format: biochemical; conditions: read-out: KRAS G12V FRET IC50
Method in brief: as §2

KRAS G13C = KRAS G13C (Homo sapiens (Human), UniProt P01116+P62937, G13C); test: as above; format: biochemical; conditions: read-out: KRAS G13C FRET IC50
Method in brief: as §2

KRAS G13D = KRAS G13D (Homo sapiens (Human), UniProt P01116+P62937, G13D); test: as above; format: biochemical; conditions: read-out: KRAS G13D FRET data IC50
Method in brief: as §2

KRAS WT = KRAS WT (Homo sapiens (Human), UniProt P01116+P62937); test: as above; format: biochemical; conditions: read-out: KRAS WT FRET data IC50
Method in brief: as §2

NRAS G12C = NRAS G12C (Homo sapiens (Human), UniProt P01111+P62937, G12C); test: as above; format: biochemical
Method in brief: as §2

[3] = read-out: NRAS G12C FRET data IC50

Sequence of KRAS G13C (P01116 other isoform, or with tags, fused parts or gaps G13C): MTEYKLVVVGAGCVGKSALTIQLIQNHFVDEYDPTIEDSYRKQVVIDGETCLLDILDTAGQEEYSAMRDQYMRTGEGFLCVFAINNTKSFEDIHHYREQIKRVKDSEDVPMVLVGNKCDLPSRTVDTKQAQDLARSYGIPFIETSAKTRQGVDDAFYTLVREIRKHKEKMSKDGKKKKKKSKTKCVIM
Sequence of KRAS G13C (P62937 whole entry): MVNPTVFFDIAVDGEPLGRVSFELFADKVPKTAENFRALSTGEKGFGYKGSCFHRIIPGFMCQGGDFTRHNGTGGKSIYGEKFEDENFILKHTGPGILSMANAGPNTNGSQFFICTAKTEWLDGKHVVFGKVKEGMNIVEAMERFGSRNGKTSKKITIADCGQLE
Sequence of KRAS G13D (P01116 other isoform, or with tags, fused parts or gaps G13D): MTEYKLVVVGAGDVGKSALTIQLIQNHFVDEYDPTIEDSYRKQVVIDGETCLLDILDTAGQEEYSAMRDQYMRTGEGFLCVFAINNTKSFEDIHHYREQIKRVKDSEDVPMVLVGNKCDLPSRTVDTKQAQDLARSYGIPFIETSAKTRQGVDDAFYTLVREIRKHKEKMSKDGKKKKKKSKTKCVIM
Sequence of KRAS G13D (P62937 whole entry): as the sequence (P62937 whole entry) above
Sequence of KRAS G12V (P01116 other isoform, or with tags, fused parts or gaps G12V): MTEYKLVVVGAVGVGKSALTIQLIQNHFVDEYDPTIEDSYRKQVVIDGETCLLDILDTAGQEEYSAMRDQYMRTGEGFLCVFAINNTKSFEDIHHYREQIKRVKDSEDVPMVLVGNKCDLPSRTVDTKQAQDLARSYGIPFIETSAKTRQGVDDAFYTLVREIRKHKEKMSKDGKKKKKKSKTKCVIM
Sequence of KRAS G12V (P62937 whole entry): as the sequence (P62937 whole entry) above
Sequence of NRAS G12C (P01111 whole entry G12C): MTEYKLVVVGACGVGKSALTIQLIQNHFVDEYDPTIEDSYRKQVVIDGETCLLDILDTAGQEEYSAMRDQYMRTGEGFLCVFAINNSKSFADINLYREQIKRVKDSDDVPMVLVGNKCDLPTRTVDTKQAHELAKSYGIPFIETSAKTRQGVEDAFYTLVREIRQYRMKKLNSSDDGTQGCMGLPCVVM
Sequence of NRAS G12C (P62937 whole entry): as the sequence (P62937 whole entry) above
Sequence of KRAS G12S (P01116 other isoform, or with tags, fused parts or gaps G12S): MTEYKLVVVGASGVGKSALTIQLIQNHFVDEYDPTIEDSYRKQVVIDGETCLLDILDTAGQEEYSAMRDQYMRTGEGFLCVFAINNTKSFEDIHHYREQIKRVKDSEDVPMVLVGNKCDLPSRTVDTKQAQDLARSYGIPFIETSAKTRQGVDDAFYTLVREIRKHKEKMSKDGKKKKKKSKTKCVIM
Sequence of KRAS G12S (P62937 whole entry): as the sequence (P62937 whole entry) above
Sequence of KRAS G12C (P01116-2 other isoform, or with tags, fused parts or gaps G12C): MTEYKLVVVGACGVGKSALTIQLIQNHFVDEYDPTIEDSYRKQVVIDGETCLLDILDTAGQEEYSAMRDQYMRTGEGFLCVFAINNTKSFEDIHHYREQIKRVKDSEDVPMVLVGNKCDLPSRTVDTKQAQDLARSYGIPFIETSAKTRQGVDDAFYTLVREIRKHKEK
Sequence of KRAS G12C (P62937 whole entry): as the sequence (P62937 whole entry) above
Sequence of KRAS WT (P01116 other isoform, or with tags, fused parts or gaps): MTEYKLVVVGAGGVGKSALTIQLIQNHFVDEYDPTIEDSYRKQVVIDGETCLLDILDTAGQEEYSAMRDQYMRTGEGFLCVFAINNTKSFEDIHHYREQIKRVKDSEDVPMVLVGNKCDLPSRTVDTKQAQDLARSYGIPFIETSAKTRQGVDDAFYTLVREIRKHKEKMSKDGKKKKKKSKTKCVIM
Sequence of KRAS WT (P62937 whole entry): as the sequence (P62937 whole entry) above
Sequence of KRAS G12D (P01116 other isoform, or with tags, fused parts or gaps G12D): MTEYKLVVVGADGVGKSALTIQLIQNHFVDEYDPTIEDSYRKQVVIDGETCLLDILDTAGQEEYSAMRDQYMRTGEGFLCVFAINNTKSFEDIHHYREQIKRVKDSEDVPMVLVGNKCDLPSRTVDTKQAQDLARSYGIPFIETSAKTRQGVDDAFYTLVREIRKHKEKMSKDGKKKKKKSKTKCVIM
Sequence of KRAS G12D (P62937 whole entry): as the sequence (P62937 whole entry) above

| Compound | pIC50 ([1]; K-Ras G12C, 5-day treatment) | pIC50 ([2]; K-Ras G12V, 5-day treatment) | pIC50 (KRAS G12C) | pIC50 (KRAS G12D) | pIC50 (KRAS G12S) | pIC50 (KRAS G12V) | pIC50 (KRAS G13C) | pIC50 (KRAS G13D) | pIC50 (KRAS WT) | pIC50 (NRAS G12C; [3]) | pIC50 [1] | pIC50 [2] | pIC50 (NRAS G12C; NRAS G12C FRET data IC50) |
| --- | --- | --- | --- | --- | --- | --- | --- | --- | --- | --- | --- | --- | --- |
| CCn1c(-c2cccnc2[C@H](C)OC)c2c3cc(ccc31)-c1cc(O)cc(c1)C[C@H](NC(=O)[C@H](C(C)C)N(C)C(=O)C1Cc3nccn3C1)C(=O)N1CCC[C@H](N1)C(=O)OCC(C)(C)C2 (stereo partly shown) [Compound A249] | 7.00 to 8.00 | 6.00 to 7.00 | 7.00 to 8.00 | 7.00 to 8.00 | 7.00 to 8.00 | 7.00 to 8.00 | 7.00 to 8.00 | 7.00 to 8.00 | 7.00 to 8.00 | 7.00 to 8.00 | – | – | – |
| CCn1c(-c2cccnc2[C@H](C)OC)c2c3cc(ccc31)-c1csc(n1)C[C@H](NC(=O)[C@H](C(C)C)N(C)C(=O)N1CCN(C)CC13CC3)C(=O)N1CCC[C@H](N1)C(=O)OCC(C)(C)C2 [Compound A307] | 7.00 to 8.00 | 6.00 to 7.00 | 5.00 to 6.00 | 5.00 to 6.00 | 5.00 to 6.00 | 5.00 to 6.00 | 5.00 to 6.00 | 5.00 to 6.00 | 5.00 to 6.00 | 5.00 to 6.00 | – | – | – |
| CCn1c(-c2cccnc2[C@H](C)OC)c2c3cc(ccc31)-c1cc(O)cc(c1)C[C@H](NC(=O)[C@H](C(C)C)N(C)C(=O)C1CC1)C(=O)N1CCC[C@H](N1)C(=O)OCC(C)(C)C2 [Compound A224] | 7.00 to 8.00 | 7.00 to 8.00 | 7.00 to 8.00 | 6.00 to 7.00 | 7.00 to 8.00 | 7.00 to 8.00 | 7.00 to 8.00 | 7.00 to 8.00 | 7.00 to 8.00 | 7.00 to 8.00 | – | – | – |
| CCn1c(-c2cccnc2[C@H](C)OC)c2c3cc(ccc31)-c1cc(O)cc(c1)C[C@H](NC(=O)[C@H](C(C)C)N(C)C(=O)[C@H]1CCCO1)C(=O)N1CCC[C@H](N1)C(=O)OCC(C)(C)C2 [Compound A240] | 7.00 to 8.00 | 7.00 to 8.00 | 7.00 to 8.00 | 6.00 to 7.00 | 6.00 to 7.00 | 6.00 to 7.00 | 7.00 to 8.00 | 6.00 to 7.00 | 6.00 to 7.00 | 7.00 to 8.00 | – | – | – |
| CCn1c(-c2ccccc2[C@H](C)OC)c2c3cc(ccc31)-c1csc(n1)C[C@H](NC(=O)[C@H](C(C)C)N(C)C(=O)[C@H]1CCN(C(=O)OC3COC3)C1)C(=O)N1CCC[C@H](N1)C(=O)OCC(C)(C)C2 [Compound A203] | 6.00 to 7.00 | 6.00 to 7.00 | 5.00 to 6.00 | < 5.00 | 5.00 to 6.00 | 5.00 to 6.00 | 5.00 to 6.00 | 5.00 to 6.00 | 5.00 to 6.00 | 5.00 to 6.00 | – | – | – |
| CCn1c(-c2cccnc2[C@H](C)OC)c2c3cc(ccc31)-c1cc(O)cc(c1)C[C@H](NC(=O)[C@H](C(C)C)N(C)C(=O)[C@H]1[C@@H]3CNC[C@@H]31)C(=O)N1CCC[C@H](N1)C(=O)OCC(C)(C)C2 [Compound A163] | 5.00 to 6.00 | < 5.00 | 6.00 to 7.00 | 6.00 to 7.00 | 6.00 to 7.00 | 5.00 to 6.00 | 6.00 to 7.00 | 7.00 to 8.00 | 6.00 to 7.00 | 6.00 to 7.00 | – | – | – |
| CCn1c(-c2cccnc2[C@H](C)OC)c2c3cc(ccc31)-c1cc(O)cc(c1)C[C@H](NC(=O)[C@H](C(C)C)N(C)C(=O)[C@H]1CCCCNC1)C(=O)N1CCC[C@H](N1)C(=O)OCC(C)(C)C2 [Compound A242] | 7.00 to 8.00 | 6.00 to 7.00 | 7.00 to 8.00 | 7.00 to 8.00 | 7.00 to 8.00 | 6.00 to 7.00 | 7.00 to 8.00 | 7.00 to 8.00 | 7.00 to 8.00 | 7.00 to 8.00 | – | – | – |
| CCn1c(-c2cccnc2[C@H](C)OC)c2c3cc(ccc31)-c1cc(O)cc(c1)C[C@H](NC(=O)[C@H](C(C)C)N(C)C(=O)C1CCNC13CCC3)C(=O)N1CCC[C@H](N1)C(=O)OCC(C)(C)C2 (stereo partly shown) [Compound A393] | 6.00 to 7.00 | 5.00 to 6.00 | 7.00 to 8.00 | 7.00 to 8.00 | 7.00 to 8.00 | 6.00 to 7.00 | 7.00 to 8.00 | 7.00 to 8.00 | 7.00 to 8.00 | 7.00 to 8.00 | – | – | – |
| CCn1c(-c2cnccc2COC)c2c3cc(ccc31)-c1cc(O)cc(c1)C[C@H](NC(=O)[C@H](C(C)C)N(C)C(=O)O[C@@H]1CCOC1)C(=O)N1CCC[C@H](N1)C(=O)OCC(C)(C)C2 [Compound A82] | 5.00 to 6.00 | 5.00 to 6.00 | 6.00 to 7.00 | 5.00 to 6.00 | 5.00 to 6.00 | 5.00 to 6.00 | 6.00 to 7.00 | 5.00 to 6.00 | 6.00 to 7.00 | 5.00 to 6.00 | – | – | – |
| CCn1c(-c2cccnc2[C@H](C)OC)c2c3cc(ccc31)-c1cc(O)cc(c1)C[C@H](NC(=O)[C@H](C(C)C)N(C)C(=O)C1CCC(C(F)(F)F)O1)C(=O)N1CCC[C@H](N1)C(=O)OCC(C)(C)C2 (stereo partly shown) [Compound A408] | – | – | 7.00 to 8.00 | 6.00 to 7.00 | 7.00 to 8.00 | 6.00 to 7.00 | 7.00 to 8.00 | 6.00 to 7.00 | 6.00 to 7.00 | – | 6.00 to 7.00 | 5.00 to 6.00 | 7.00 to 8.00 |
| CCn1c(-c2cccnc2[C@H](C)OC)c2c3cc(ccc31)-c1cc(O)cc(c1)C[C@H](NC(=O)[C@H](C(C)C)N(C)C(=O)C13CCC(CO1)C3)C(=O)N1CCC[C@H](N1)C(=O)OCC(C)(C)C2 [Compound A410] | 6.00 to 7.00 | 6.00 to 7.00 | 7.00 to 8.00 | 6.00 to 7.00 | 6.00 to 7.00 | 6.00 to 7.00 | 7.00 to 8.00 | 6.00 to 7.00 | 7.00 to 8.00 | 6.00 to 7.00 | – | – | – |
| CCn1c(-c2cccnc2[C@H](C)OC)c2c3cc(ccc31)-c1csc(n1)C[C@H](NC(=O)[C@H](C(C)C)N(C)C(=O)N1CC3CCC1CN3C)C(=O)N1CCC[C@H](N1)C(=O)OCC(C)(C)C2 [Compound A308] | 6.00 to 7.00 | 6.00 to 7.00 | 6.00 to 7.00 | 5.00 to 6.00 | 5.00 to 6.00 | 5.00 to 6.00 | 5.00 to 6.00 | 5.00 to 6.00 | 6.00 to 7.00 | 6.00 to 7.00 | – | – | – |
| CCn1c(-c2cccnc2[C@H](C)OC)c2c3cc(ccc31)-c1csc(n1)C[C@H](NC(=O)[C@H](C(C)C)N(C)C(=O)[C@H]1CCN(C(C)=O)C1)C(=O)N1CCC[C@H](N1)C(=O)OCC(C)(C)C2 [Compound A244] | 5.00 to 6.00 | 6.00 to 7.00 | 5.00 to 6.00 | < 5.00 | 5.00 to 6.00 | 5.00 to 6.00 | 5.00 to 6.00 | < 5.00 | 5.00 to 6.00 | 5.00 to 6.00 | – | – | – |
